Assay results as given in the supplement of paper PMC10307832.

Columns and labels:
Assay in all cases: relative viability (nuclei count vs DMSO), 5 days (fraction); higher = more cells survive
[1] = compound: CC(C)CCN1c2nc(Nc3cc(F)c(O)c(F)c3)ncc2N(C)C(=O)C1C [BI-D1870] + COc1cccc2cc(-c3nc([C@H]4CC[C@H](C(=O)O)CC4)n4ncnc(N)c34)[nH]c12 [OSI-027] (partner 0.5 µM)
Procedure, shortened: (§1)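 Relative viability was taken as the ratio of nuclei in treated wells to nuclei in vehicle wells. Lung cancer cell lines in 1536-well plates received compounds by pin tool one day after seeding, either one drug alone or a fixed anchor-drug dose plus five library-drug doses (not always all listed) in √10 steps. Nuclei were counted on 4× images after 5 days of treatment, and values are medians of duplicate plates.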

[2] = compound: CC(C)CCN1c2nc(Nc3cc(F)c(O)c(F)c3)ncc2N(C)C(=O)C1C [BI-D1870] + CS(=O)(=O)N1CCN(Cc2cc3nc(-c4cccc5[nH]ncc45)nc(N4CCOCC4)c3s2)CC1 [Pictilisib] (partner 1 µM)
Procedure, shortened: as §1

[3] = compound: CC(C)CCN1c2nc(Nc3cc(F)c(O)c(F)c3)ncc2N(C)C(=O)C1C [BI-D1870] + C[C@]1(O)C[C@@H](c2nc(-c3ccc4ccc(-c5ccccc5)nc4c3)c3c(N)nccn32)C1 [Linsitinib] (partner 1 µM)
Procedure, shortened: as §1

[4] = compound: CC(C)CCN1c2nc(Nc3cc(F)c(O)c(F)c3)ncc2N(C)C(=O)C1C [BI-D1870] + Cc1cc(Nc2cc(N3CCN(C)CC3)nc(Sc3ccc(NC(=O)C4CC4)cc3)n2)n[nH]1 [Tozasertib] (partner 0.1 µM)
Procedure, shortened: as §1

Row | Cell Line | relative viability ([1]; first compound 0.04 µM) | relative viability ([1]; first compound 0.1265 µM) | relative viability ([1]; first compound 0.4 µM) | relative viability ([1]; first compound 1.265 µM) | relative viability ([1]; first compound 4 µM) | relative viability ([2]; first compound 0.04 µM) | relative viability ([2]; first compound 0.1265 µM) | relative viability ([2]; first compound 0.4 µM) | relative viability ([2]; first compound 1.265 µM) | relative viability ([2]; first compound 4 µM) | relative viability ([3]; first compound 0.04 µM) | relative viability ([3]; first compound 0.1265 µM) | relative viability ([3]; first compound 0.4 µM) | relative viability ([3]; first compound 1.265 µM) | relative viability ([3]; first compound 4 µM) | relative viability ([4]; first compound 0.04 µM) | relative viability ([4]; first compound 0.1265 µM) | relative viability ([4]; first compound 0.4 µM) | relative viability ([4]; first compound 1.265 µM) | relative viability ([4]; first compound 4 µM)
1 | HCC-78 | 0.629 | 0.346 | 0.401 | 0.427 | 0.309 | 0.213 | 0.185 | 0.249 | 0.21 | 0.236 | 0.54 | 0.547 | 0.492 | 0.533 | 0.406 | 0.455 | 0.355 | 0.392 | 0.39 | 0.293
2 | HCC-366 | 1.1 | 0.603 | 0.75 | 0.818 | 0.49 | 0.157 | 0.159 | 0.0753 | 0.136 | 0.174 | 0.919 | 0.538 | 0.53 | 0.763 | 0.623 | 0.0892 | 0.057 | 0.055 | 0.0986 | 0.0506
3 | HCC-827 | 0.74 | 0.738 | 0.71 | 0.76 | 0.711 | 0.96 | 1.05 | 1.08 | 1.14 | 0.91 | 0.992 | 0.959 | 0.982 | 0.977 | 0.895 | 0.421 | 0.401 | 0.377 | 0.396 | 0.369
4 | HOP-62 | 0.993 | 0.819 | 0.791 | 0.849 | 0.699 | 0.606 | 0.745 | 0.726 | 0.554 | 0.669 | 1.25 | 0.997 | 1.13 | 1.04 | 0.91 | 0.371 | 0.371 | 0.407 | 0.39 | 0.301
5 | IA-LM |  |  |  |  |  | 0.406 | 0.294 | 0.268 | 0.196 | 0.106 | 0.824 | 0.229 | 0.733 | 0.983 | 0.604 |  |  |  |  | 
6 | LC-2-ad | 0.93 | 0.861 | 0.824 | 0.867 | 0.802 | 0.536 | 0.456 | 0.498 | 0.0168 | 0.474 | 0.874 | 0.821 | 0.778 | 0.722 | 0.522 | 0.561 | 0.479 | 0.443 | 0.367 | 0.373
7 | LCLC-97TM1 | 0.682 | 0.61 | 0.557 | 0.727 | 0.472 | 0.183 | 0.151 | 0.175 | 0.21 | 0.153 | 0.238 | 0.158 | 0.19 | 0.244 | 0.193 | 0.302 | 0.289 | 0.221 | 0.225 | 0.186
8 | LCLC-103H | 0.387 | 0.417 | 0.447 | 0.418 | 0.366 | 0.631 | 0.573 | 0.563 | 0.573 | 0.494 | 1.17 | 1.02 | 1.05 | 1.36 | 1.06 | 0.44 | 0.285 | 0.465 | 0.565 | 0.49
9 | LK-2 | 0.21 | 0.259 | 0.198 | 0.197 | 0.148 | 0.557 | 0.484 | 0.535 | 0.619 | 0.533 | 0.616 | 0.518 | 0.512 | 0.497 | 0.457 | 0.146 | 0.175 | 0.172 | 0.175 | 0.148
10 | LOU-NH91 | 0.797 | 0.701 | 0.7 | 0.75 | 0.57 | 0.413 | 0.503 | 0.504 | 0.587 | 0.44 | 0.98 | 0.908 | 0.996 | 0.986 | 0.769 | 0.688 | 0.536 | 0.695 | 0.586 | 0.405
11 | NCI-H522 | 0.872 | 0.66 | 0.655 | 0.654 | 0.649 |  |  |  |  |  |  |  |  |  |  | 0.559 | 0.648 | 0.583 | 0.505 | 0.533
12 | NCI-H1299 |  |  |  |  |  | 0.801 | 0.774 | 0.653 | 0.514 | 0.19 | 1.04 | 0.909 | 0.995 | 1.02 | 0.933 |  |  |  |  | 
13 | NCI-H1563 | 0.79 | 0.814 | 0.673 | 0.801 | 0.709 | 0.674 | 0.617 | 0.604 | 0.693 | 0.681 | 1.4 | 1.1 | 1.13 | 1.07 | 1.19 |  |  |  |  | 
14 | NCI-H1623 | 0.389 | 0.439 | 0.457 | 0.396 | 0.376 |  |  |  |  |  |  |  |  |  |  | 0.404 | 0.412 | 0.478 | 0.452 | 0.376
15 | NCI-H1648 | 0.266 | 0.255 | 0.273 | 0.252 | 0.277 |  |  |  |  |  |  |  |  |  |  | 0.479 | 0.48 | 0.371 | 0.566 | 0.412
16 | NCI-H1650 | 0.653 | 0.591 | 0.593 | 0.68 | 0.331 | 0.632 | 0.484 | 0.527 | 0.533 | 0.558 |  |  |  |  |  | 0.53 | 0.347 | 0.401 | 0.323 | 0.252
17 | NCI-H1703 |  |  |  |  |  | 0.256 | 0.245 | 0.234 | 0.213 | 0.209 |  | 0.405 | 0.635 | 0.772 | 0.728 |  |  |  |  | 
18 | NCI-H1792 | 0.753 | 0.613 | 0.533 | 0.552 | 0.397 | 0.248 | 0.274 | 0.24 | 0.297 | 0.227 | 0.622 | 0.607 | 0.47 | 0.619 | 0.387 |  |  |  |  | 
19 | NCI-H2170 | 0.732 | 0.634 | 0.65 | 0.428 | 0.639 | 0.287 | 0.333 | 0.347 | 0.301 | 0.302 |  |  |  |  |  | 0.701 | 0.715 | 0.713 | 0.648 | 0.574
20 | NCI-H2342 | 0.592 | 0.587 | 0.645 | 0.773 | 0.679 |  |  |  |  |  |  |  |  |  |  | 0.491 | 0.374 | 0.538 | 0.481 | 0.515
21 | SW 900 | 0.808 | 0.424 | 0.442 | 0.604 | 0.327 |  |  |  |  |  |  |  |  |  |  | 0.472 | 0.542 | 0.463 | 0.408 | 0.284
